Experiments:
[1] = Determination of pKa of formulated lipids (TNS fluorescence); assay type: physicochemical; conditions: probe 2-(p-toluidino)-6-naphthalenesulfonic acid (TNS), 1 µM final, vesicles of cationic lipid/DSPC/CH/PEG-c-DOMG 40:10:40:10, pH 2 to 11
Description: The pKa's of the different ionisable cationic lipids were determined essentially as described (Eastman et al 1992 Biochemistry 31:4262-4268) using the fluorescent probe 2-(p-toluidino)-6-naphthalenesulfonic acid (TNS), which is non-fluorescent in water but becomes appreciably fluorescent when bound to membranes. Vesicles composed of cationic lipid/DSPC/CH/PEG-c-DOMG (40:10:40:10 mole ratio) were diluted to 0.1 mM in buffers (130 mM NaCl, 10 mM CH3COONH4, 10 mM MES, 10 mM HEPES) of various pH's, ranging from 2 to 11. An aliquot of the TNS aqueous solution (1 μM final) was added to the diluted vesicles and after a 30 second equilibration period the fluorescent of the TNS-containing solution was measured at excitation and emission wavelengths of 321 nm and 445 nm, respectively. The pKa of the cationic lipid-containing vesicles was determined by plotting the measured fluorescence against the pH of the solutions and fitting the data to a Sigmodial curve using the commercial graphing program IgorPro.

Factor VII [2] = test: In vivo determination of efficacy of novel lipid formulations (FVII knockdown, ED50); design: species or system C57Bl/6 mice; conditions: dose resulting in a 50% reduction in plasma FVII levels compared to control animals; FVII siRNA in cationic lipid/DSPC/cholesterol/PEG-lipid 40/10/40/10; intravenous, 24 h
Description: Cationic lipid containing particles were made using the preformed vesicle method. Cationic lipid, DSPC, cholesterol and PEG-lipid were solubilised in ethanol at a molar ratio of 40/10/40/10, respectively. The lipid mixture was added to an aqueous buffer (50 mM citrate, pH 4) with mixing to a final ethanol and lipid concentration of 30% (vol/vol) and 6.1 mg/mL respectively and allowed to equilibrate at room temperature for 2 min before extrusion. The hydrated lipids were extruded through two stacked 80 nm pore-sized filters (Nuclepore) at 22° C. using a Lipex Extruder (Northern Lipids, Vancouver, BC) until a vesicle diameter of 70-90 nm, as determined by Nicomp analysis, was obtained. This generally required 1-3 passes.
The FVII siRNA (solubilised in a 50 mM citrate, pH 4 aqueous solution containing 30% ethanol) was added to the vesicles, pre-equilibrated to 35° C., at a rate of […] with mixing. After a final target siRNA/lipid ratio of 0.06 (wt/wt) was achieved, the mixture was incubated for a further 30 min at 35° C. to allow vesicle re-organization and encapsulation of the FVII siRNA. The ethanol was then removed and the external buffer replaced with PBS (155 mM NaCl, 3 mM Na2HPO4, 1 mM KH2PO4, pH 7.5) by either dialysis or tangential flow diafiltration. The final encapsulated siRNA-to-lipid ratio was determined after removal of unencapsulated siRNA using size-exclusion spin columns or ion exchange spin columns.
Test formulations were initially assessed for their FVII knockdown in female 7-9 week old, 15-25 g, female C57Bl/6 mice at 0.1, 0.3, 1.0 and 5.0 mg/kg with 3 mice per treatment group. All studies included animals receiving either phosphate-buffered saline (PBS, Control group) or a benchmark formulation. Formulations were diluted to the appropriate concentration in PBS immediately prior to testing. Mice were weighed and the appropriate dosing volumes calculated (10 μl/g body weight). Test and benchmark formulations as well as PBS (for Control animals) were administered intravenously via the lateral tail vein. Animals were anesthetised 24 h later with an intraperitoneal injection of Ketamine/Xylazine and 500-700 μl of blood was collected by cardiac puncture into serum separator tubes (BD Microtainer). Blood was centrifuged at 2,000×g for 10 min at 15° C. and serum was collected and stored at −70° C. until analysis. Serum samples were thawed at 37° C. for 30 min, diluted in PBS and aliquoted into 96-well assay plates. Factor VII levels were assessed using a chromogenic assay (Biophen FVII kit, Hyphen BioMed) according to manufacturer's instructions and absorbance measured in microplate reader equipped with a 405 nm wavelength filter. Plasma FVII levels were quantified and ED50s (dose resulting in a 50% reduction in plasma FVII levels compared to control animals) calculated using a standard curve generated from a pooled sample of serum from Control animals. Those formulations of interest showing high levels of FVII knockdown (ED50<<0.1 mg/kg) were re-tested in independent studies at a lower dose range to confirm potency and establish ED50.

Factor VII [3] = test: In vivo evaluation of FVII siRNA 1661 using cyclic cationic lipid based formulations (FVII assay); design: species or system rodent; conditions: lipid particles with FVII siRNA 1661
Description: C57BL/6 mice (Charles River Labs, MA) and Sprague-Dawley rats (Charles River Labs, MA) received either saline or siRNA in desired formulations via tail vein injection at a volume of 0.01 mL/g. At various time points post-administration, animals were anesthesized by isofluorane inhalation and blood was collected into serum separator tubes by retro orbital bleed. Serum levels of Factor VII protein were determined in samples using a chromogenic assay (Coaset Factor VII, DiaPharma Group, OH or Biophen FVII, Aniara Corporation, OH) according to manufacturer protocols. A standard curve was generated using serum collected from saline treated animals. In experiments where liver mRNA levels were assessed, at various time points post-administration, animals were sacrificed and livers were harvested and snap frozen in liquid nitrogen. Frozen liver tissue was ground into powder. Tissue lysates were prepared and liver mRNA levels of Factor VII and apoB were determined using a branched DNA assay (QuantiGene Assay, Panomics, Calif.).
The cyclic cationic lipids 506, 512 and 519-based formulations as described below were prepared, characterized and evaluated in vivo by FVII assay.

SMILES	pKa [1]	ED50 (Factor VII [2]) [mg/kg]	knockdown of FVII protein levels in vivo (Factor VII [3])
CCCCC/C=C\C/C=C\CCCCCCCCC1(CCCCCCCC/C=C\C/C=C\CCCCC)OCC(CCN(C)Cc2cccnc2)O1 (stereo not drawn) [ALNY-140]	4.95	>5.0	–
CCCCC/C=C\C/C=C\CCCCCCCCC(CCCCCCCC/C=C\C/C=C\CCCCC)CNC(=O)OCCCN(C)C [ALNY-200]	7.57	>5.00	–
CCCCC/C=C\C/C=C\CCCCCCCCC(CCCCCCCC/C=C\C/C=C\CCCCC)CN(C)CCN(C)C [ALNY-141]	6.62	0.14	–
CCCCC/C=C\C/C=C\CCCCCCCCC1(CCCCCCCC/C=C\C/C=C\CCCCC)O[C@H]2CC[C@@H](CN(C)C)C[C@H]2O1 [ALNY-121]	6.6	0.5	–
CCCCC/C=C\C/C=C\CCCCCCCC1OC(C)(CCN(C)C)OC1CCCCCCC/C=C\C/C=C\CCCCC (stereo not drawn) [ALNY-152]	6.6	0.15	–
CCCCC/C=C\C/C=C\CCCCCCCCC1(CCCCCCCC/C=C\C/C=C\CCCCC)O[C@@H]2CC[C@H](N(C)C)C[C@H]2O1 [ALNY-169]	–	2.60	–
CCCCC/C=C\C/C=C\CCCCCCCCC(CCCCCCCC/C=C\C/C=C\CCCCC)CNC(=O)OCCN(C)C [ALNY-203]	7.07	5.0	–
CCCCC/C=C\C/C=C\CCCCCCCCC1(CCCCCCCC/C=C\C/C=C\CCCCC)O[C@H]2[C@@H](OC)OC(CN(C)C)[C@H]2O1 (stereo partly drawn) [ALNY-151]	5.5	>5.00	–
CCCCC/C=C\C/C=C\CCCCCCCCC1(CCCCCCCC/C=C\C/C=C\CCCCC)O[C@H]2CC[C@H](CN(C)C)C[C@H]2O1 [ALNY-122]	–	0.55	–
CCCCC/C=C\C/C=C\CCCCCCCCC1(CCCCCCCC/C=C\C/C=C\CCCCC)O[C@H]2COC(CN(C)C)[C@H]2O1 (stereo partly drawn) [ALNY-144]	–	0.60	–
CCCCC/C=C\C/C=C\CCCCCCCCC1(CCCCCCCC/C=C\C/C=C\CCCCC)O[C@H]2C[C@@H](N(C)C)C[C@H]2O1 [ALNY-101]	6.43	0.1	–
CCCCC/C=C\C/C=C\CCCCCCCCC(CCCCCCCC/C=C\C/C=C\CCCCC)ON=C(C)CCN(C)C [ALNY-149]	5.81	0.1	–
CCCCC/C=C\C/C=C\CCCCCCCC1OC2(CCC(N(C)C)CC2)OC1CCCCCCC/C=C\C/C=C\CCCCC (stereo not drawn) [ALNY-158]	–	1.40	–
CCCCC/C=C\C/C=C\CCCCCCCCC1(CCCCCCCCCC)O[C@H]2C[C@H](N(C)C)C[C@H]2O1 (stereo partly drawn) [ALNY-110]	6.5	2.0	–
CCCCC/C=C\C/C=C\CCCCCCCCC(CCCCCCCC/C=C\C/C=C\CCCCC)NC(=O)OCCCN(C)C [ALNY-192]	7.21	2.1	–
CCCCC/C=C\C/C=C\CCCCCCCCC1(CCCCCCCC/C=C\C/C=C\CCCCC)O[C@H]2C[C@@H](N(C)C)C[C@H]2O1 [Compound 519]	–	–	almost complete knockdown
CCCCC/C=C\C/C=C\CCCCCCCCO[C@H]1C[C@H](N(C)C)C[C@H]1OCCCCCCCC/C=C\C/C=C\CCCCC [ALNY-117]	–	>5.0	–
CCCCC/C=C\C/C=C\CCCCCCCCC1(CCCCCCCC/C=C\C/C=C\CCCCC)O[C@H]2C[C@@H](N(C)C)CC[C@H]2O1 [ALNY-102]	7.3	2.0	–

SMILES	pKa [1]	ED50 (Factor VII [2]) [mg/kg]	knockdown of FVII protein levels in vivo (Factor VII [3])
CCCCC/C=C\C/C=C\CCCCCCCCC1(CCCCCCCC/C=C\C/C=C\CCCCC)O[C@H]2C[C@H](N(C)C)CC[C@H]2O1 [ALNY-103]	6.98	2.5	–
CCCCC/C=C\C/C=C\CCCCCCCCC1(CCCCCCCC/C=C\C/C=C\CCCCC)O[C@H]2C[C@@H](CN(C)C)C[C@H]2O1 [ALNY-115]	–	1.0	–
CCCCC/C=C\C/C=C\CCCCCCCCC1(CCCCCCCC/C=C\C/C=C\CCCCC)O[C@H]2CCN(C)C[C@H]2O1 [ALNY-105]	5.6	1.5	–
CCCCC/C=C\C/C=C\CCCCCCCCC1(CCCCCCCC/C=C\C/C=C\CCCCC)O[C@H]2CCN(C)CC[C@H]2O1 [ALNY-106]	6.85	0.3	–
CCCCC/C=C\C/C=C\CCCCCCCCC(CCCCCCCC/C=C\C/C=C\CCCCC)NC(=O)OCCN(C)C [ALNY-202]	6.52	0.12	–
CCCCC/C=C\C/C=C\CCCCCCCCC(CCCCCCCC/C=C\C/C=C\CCCCC)CNC(=O)CCN(C)C [ALNY-201, 3-(dimethylamino)-N-((11Z,14Z)-2-((9Z,12Z)-octadeca-9,12-dienyl)icosa-11,14-dienyl)propanamide]	8.02	>5.0	–
CCCCC/C=C\C/C=C\CCCCCCCCC1(CCCCCCCC/C=C\C/C=C\CCCCC)O[C@H]2C[C@H](N(C)C)C[C@H]2O1 [ALNY-100]	6.4	0.3	–
CCCCC/C=C\C/C=C\CCCCCCCCC1(CCCCCCCC/C=C\C/C=C\CCCCC)O[C@H]2CN(C)C[C@H]2O1 [ALNY-104]	5.65	2.5	–
CCCCC/C=C\C/C=C\CCCCCCCCC(CCCCCCCC/C=C\C/C=C\CCCCC)SSCCN(C)C [ALNY-160]	5.18	2.00	–
CCCCC/C=C\C/C=C\CCCCCCCCC1(CCCCCCCCCCCCCCCCCC)O[C@H]2C[C@H](N(C)C)C[C@H]2O1 (stereo partly drawn) [ALNY-108]	6.55	0.75	–
CCCCC/C=C\C/C=C\CCCCCCCCC1(CCCCCCCC/C=C\C/C=C\CCCCC)OCC2(CCN(C)CC2)O1 [ALNY-148]	6.53	0.3	–
CCCCC/C=C\C/C=C\CCCCCCCCC1(CCCCCCCC/C=C\CCCCCCCC)O[C@H]2C[C@H](N(C)C)C[C@H]2O1 (stereo partly drawn) [ALNY-107]	6.63	0.25	–
CCCCC/C=C\C/C=C\CCCCCCCCC(CCCCCCCC/C=C\C/C=C\CCCCC)=NNCCN(C)C [ALNY-175]	–	2.7	–
CCCCC/C=C\C/C=C\CCCCCCCCC(CCCCCCCC/C=C\C/C=C\CCCCC)OC(=O)NCCN(C)C [ALNY-190]	6.49	0.47	–
CCCCC/C=C\C/C=C\CCCCCCCC1OC2(CCN(C)CC2)OC1CCCCCCC/C=C\C/C=C\CCCCC (stereo not drawn) [ALNY-156]	6.08	–	–
CCCCC/C=C\C/C=C\CCCCCCCCC1(CCCCCCCCCCCC)O[C@H]2C[C@H](N(C)C)C[C@H]2O1 (stereo partly drawn) [ALNY-109]	6.75	2.0	–
CCCCC/C=C\C/C=C\CCCCCCCCC1(CCCCCCCC/C=C\C/C=C\CCCCC)O[C@H]2C[C@H](CN(C)C)C[C@H]2O1 [ALNY-116]	–	1.0	–
